Data from article PMC6727436, “Gummosin, a sesquiterpene coumarin from Ferula assa-foetida is preferentially cytotoxic to human breast and prostate cancer cell lines” (Avicenna Journal of Phytomedicine, 2019).
Values after ≈ are worked out from the molar mass of the structure shown.

Tests used:
[1] = tested on: MCF-7 human breast adenocarcinoma cell line; experiment: cells; assay type: cell-based; conditions: for IC50: Homo sapiens, MCF7, 48 h, read-out: IC50 (µg/mL)±SD/Cell line MCF-7; for IC50 / IC50 (µg/mL)±SD/Cell line MCF-7: MCF-7, 48 hr treatment, alamarBlue; for cytotoxic activity at highest dose: MCF-7, highest dose 50 µg/mL
Method: (§1) Human breast adenocarcinoma cell line (MCF-7), human prostate cancer cell line (PC3) and human normal fibroblast cell line (NIH) were obtained from Biotechnology Research Center (Mashhad, Iran) and subsequently grown in RPMI-1640 medium with 10% fetal bovine serum (Gibco, Invitrogen, Paisley, UK), penicillin (100 units/ml) and streptomycin ([…]) as antibiotics. The cell culture was done in a humidified incubator under the atmosphere of 5% CO2 at 37 °C.
(§2) To measure the cytotoxic activity of pure compounds, a non-fluorescent substrate called resazurin (alamarBlue®; BioSource Invitrogen, Paisley, UK) was used in this study. In this study, we used a method that was previously reported by Haaften et al., with some small modifications (van Haaften et al., 2011). Briefly, when the cells were in the exponential phase, 1×10^4 of the three cell lines were seeded in 96-well plates. The cells were incubated for 24 hr in order to adhere to the plastic surface of the bottom of the wells. After 24 hr, the cells were treated with 6.25, 12.5, 25 and 50 µg/mL of each compound from the stock solution of 5 mg/mL in dimethyl sulfoxide (DMSO) via serial solution prepared using RPMI-1640. The amount of DMSO in final culture media was lower than […]. Also, to rule out the effects of DMSO on cells, equal amount of DMSO was added to the untreated groups. After 48 hr, viability of the cells was measured by adding alamarBlue® reagent (10% of tissue culture volume from stock solution of 0.14 mg/mL). The absorbance of the wells was read at 600 nm using a microplate reader. Doxorubicin at concentrations of 0.1, 1 and 5 µg/mL was used as the positive control and the viability was calculated using following formula:
(§3) T=Absorbance of wells with pure compounds at 600 nm after 48 hr of incubation.
(§4) UT=Absorbance of wells with cell but without any compound at 600 nm after 48 hr of incubation.
(§5) B=Absorbance of blank (without cell and compounds) at 600 nm after 48 hr of incubation.
(§6) In this study, all the experiments were done at least in triplicate.

[2] = tested on: PC3 human prostate cancer cell line; experiment: cells; assay type: cell-based; conditions: for IC50: Homo sapiens, 48 h, read-out: IC50 (µg/mL)±SD/Cell line PC3; for IC50 / IC50 (µg/mL)±SD/Cell line PC3: PC3, 48 hr treatment, alamarBlue; for cytotoxic activity at highest dose: PC3, highest dose 50 µg/mL
Method: as §1, §2, §3, §4, §5, §6

[3] = tested on: NIH human normal fibroblast cell line; experiment: alamarBlue (resazurin) cytotoxicity assay, NIH normal cells; assay type: cell-based; conditions: for IC50: Homo sapiens, Fibroblast, NIH normal cells, 48 hr treatment, alamarBlue, read-out: IC50 (µg/mL)±SD/Cell line NIH
Method: as §1, §2, §3, §4, §5, §6

ovarian cancer cell line = tested on: ovarian cancer cell line; set-up: method as in Valiahdi et al., 2013; conditions: ref Valiahdi et al., 2013; read-out: IC50 against ovarian cancer cell line; cited from earlier work
[4] = set-up: method as in Iranshahi, 2018; conditions: cell line not stated; ref Iranshahi, 2018; cited from earlier work
cancer cell lines = tested on: cancer cell lines; set-up: method as in Kasaian, et al., 2015; conditions: ref Kasaian, et al., 2015; cited from earlier work

`COc1cccc2c1C(=O)c1c(O)c3c(c(O)c1C2=O)C[C@@](O)(C(=O)CO)C[C@@H]3O[C@H]1C[C@H](N)[C@H](O)[C@H](C)O1` [Doxorubicin, reference compound] showed an IC50 [1] of 0.28 µg/mL (≈ 0.515 µM) and an IC50 [2] of 0.62 µg/mL (≈ 1.14 µM).
For `C=C1CC[C@@H]2C(C)(C)[C@H](O)CC[C@@]2(C)[C@H]1COc1ccc2ccc(=O)oc2c1` [Farnesiferol A], the IC50 [1] was over 50 µg/mL, the “cytotoxic activity at highest dose” value [1] was “did not show cytotoxic activity” and the IC50 [2] was over 50 µg/mL. The “cytotoxic activity at highest dose” value [2] was “did not show cytotoxic activity” and the IC50 [3] was over 100 µg/mL.
`C=C1CC[C@@H](O)C(C)(C)C1CC/C(C)=C/COc1ccc2ccc(=O)oc2c1` (some centres unmarked) [Farnesiferol B] gave an IC50 [1] of under 50 µg/mL, an IC50 [2] of under 50 µg/mL and an IC50 [3] of over 100 µg/mL.
In the case of `C/C(=C\COc1ccc2ccc(=O)oc2c1)CC[C@@H]1C(C)(C)[C@H]2CC[C@]1(C)O2` [Farnesiferol C], the IC50 [1] is reported as under 50 µg/mL, the “IC50 (µg/mL)±SD/Cell line MCF-7” value [1] is reported as 41.7 ± 8.2 µg/mL (≈ 109 µM) and the IC50 [2] is reported as under 50 µg/mL. For the same compound, the “IC50 (µg/mL)±SD/Cell line PC3” value [2] was 43.1 ± 9.5 µg/mL (≈ 113 µM) and the IC50 [3] was over 100 µg/mL.
For `C=C1CCC2C(C)(C)C(O)CCC2(C)C1COc1ccc2ccc(=O)oc2c1` (centres unmarked) [Gummosin], the IC50 [1] was under 50 µg/mL, the “IC50 (µg/mL)±SD/Cell line MCF-7” value [1] was 32.1 ± 2.3 µg/mL (≈ 83.9 µM) and the IC50 [2] was under 50 µg/mL. The “IC50 (µg/mL)±SD/Cell line PC3” value [2] was 30.0 ± 4.7 µg/mL (≈ 78.4 µM), the IC50 [3] was over 100 µg/mL and the “toxicity in normal cell line” value ([3]; NIH normal cell line, at 50 µg/mL) was “did not cause any toxicity”.
For `CC1(C)CC[C@H]2C(C)(C)[C@H](O)CC[C@]2(C)[C@H]1COc1ccc2ccc(=O)oc2c1` [Samarcandin], the IC50 [1] was over 50 µg/mL, the “cytotoxic activity at highest dose” value [1] was “unable to induce toxicity” and the IC50 [2] was over 50 µg/mL. For the same compound, the “cytotoxic activity at highest dose” value [2] was “unable to induce toxicity” and the IC50 [3] was over 100 µg/mL.
With `CC(C)=CCC/C(C)=C/CC/C(C)=C/COc1ccc2ccc(=O)oc2c1` [Umbelliprenin] the IC50 [1] was over 50 µg/mL, the IC50 [2] was over 50 µg/mL and the IC50 [3] was over 100 µg/mL.
In the case of `CC1=CCC2C(C)(C)C(=O)CCC2(C)C1COc1ccc2ccc(=O)oc2c1` (centres unmarked) [conferone], the IC50 (ovarian cancer cell line) is given as 7.79 µM.
For `CC(C)=CCC/C(C)=C/CC/C(C)=C/Cc1c(O)c2ccccc2oc1=O` [ferulenol], the “IC50 (cytotoxic activity)” value [4] is listed as 1 µg/mL (≈ 2.73 µM).
For `CC1=CC[C@@H]2C(C)(C)[C@H](O)CC[C@@]2(C)[C@@H]1COc1ccc2ccc(=O)oc2c1` [feselol, Feselol], the “activity against cancer cell lines” value (cancer cell lines) is listed as “inactive”.
